From PMC9455146, “Effects of Novel Photosynthetic Inhibitor [CuL2]Br2 Complex on Photosystem II Activity in Spinach” (Cells, 2022)

Molecular target: T1, D1-protein of the PSII reaction center (QB-plastoquinone-herbicide-binding protein) (Spinacia oleracea, UniProt P69560)
T1 construct: gene psbA; native protein in isolated spinach thylakoids; with photosystem II complex
Assay: PSII chlorophyll fluorescence (PAM) in isolated thylakoids; block of Light 1-induced QA- re-oxidation
Assay type: biochemical

CN(C)C(=O)Nc1ccc(Cl)c(Cl)c1 [DCMU, 3-(3,4-dichlorophenyl)-1,1-dimethylurea]
Concentration blocking Light 1-induced QA- re-oxidation: 0.5 µM
